# In article PMC5605198, “MELK is not necessary for the proliferation of basal-like breast cancer cells” (eLife, 2017):
# pIC50: −log10 of the molar value. Like-named read-outs stand apart in the source and are kept apart here.
# Experiments:
# CDK7 = CDK7 (Homo sapiens, UniProt P50613); assay: Adapta kinase assay; details: Adapta assay at [ATP]=apparent Km; read-out: Biochemical IC50 CDK7
# mTOR = mTOR (Homo sapiens, UniProt P42345); assay: Z’-LYTE enzymatic assay; details: Z’-LYTE assay at [ATP]=apparent Km; read-out: Biochemical IC50 mTOR
# MELK [1] = target: T1, MELK (Homo sapiens, UniProt Q14680); assay: KINOMEscan MELK pull-down; type: binding
# T1 sequence (Q14680 whole entry): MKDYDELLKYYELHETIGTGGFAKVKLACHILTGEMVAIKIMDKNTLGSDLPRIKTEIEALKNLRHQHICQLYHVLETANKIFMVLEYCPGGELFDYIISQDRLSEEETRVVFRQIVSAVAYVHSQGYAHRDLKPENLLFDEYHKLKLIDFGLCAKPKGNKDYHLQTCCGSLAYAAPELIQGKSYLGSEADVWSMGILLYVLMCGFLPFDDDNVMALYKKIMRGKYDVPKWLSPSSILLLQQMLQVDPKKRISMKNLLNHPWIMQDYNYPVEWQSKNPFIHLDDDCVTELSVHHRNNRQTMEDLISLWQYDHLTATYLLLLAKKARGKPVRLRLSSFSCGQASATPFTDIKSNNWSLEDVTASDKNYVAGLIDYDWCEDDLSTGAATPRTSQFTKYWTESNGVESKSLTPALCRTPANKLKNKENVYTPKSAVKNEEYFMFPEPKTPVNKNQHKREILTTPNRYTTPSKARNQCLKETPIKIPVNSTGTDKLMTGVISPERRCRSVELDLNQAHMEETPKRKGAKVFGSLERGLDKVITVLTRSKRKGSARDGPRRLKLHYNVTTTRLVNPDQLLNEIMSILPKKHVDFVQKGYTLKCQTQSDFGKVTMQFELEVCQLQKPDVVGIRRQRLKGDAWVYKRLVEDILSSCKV
# Method: Based on biochemical (KINOMEscan) and cellular (KiNativ) kinase profiling of our in-house library of structurally diverse ATP-competitive kinase inhibitors, we identified several chemotypes that were prioritized for further characterization and development. In particular, we focused on JW-7-25-1 (Figure 1A), a benzonaphthyridinone derivative that inhibited MELK pull-down by 100% (KINOMEscan) at 10 μM.
# MELK [2] = target: T1, MELK; assay: Z’-LYTE enzymatic assay; type: biochemical
# GSK3A = GSK3A (Homo sapiens, UniProt P49840); assay: Z’-LYTE enzymatic assay; details: Z’-LYTE assay at [ATP]=apparent Km; read-out: Biochemical IC50 GSK3A
# Sequence of GSK3A (P49840 whole entry): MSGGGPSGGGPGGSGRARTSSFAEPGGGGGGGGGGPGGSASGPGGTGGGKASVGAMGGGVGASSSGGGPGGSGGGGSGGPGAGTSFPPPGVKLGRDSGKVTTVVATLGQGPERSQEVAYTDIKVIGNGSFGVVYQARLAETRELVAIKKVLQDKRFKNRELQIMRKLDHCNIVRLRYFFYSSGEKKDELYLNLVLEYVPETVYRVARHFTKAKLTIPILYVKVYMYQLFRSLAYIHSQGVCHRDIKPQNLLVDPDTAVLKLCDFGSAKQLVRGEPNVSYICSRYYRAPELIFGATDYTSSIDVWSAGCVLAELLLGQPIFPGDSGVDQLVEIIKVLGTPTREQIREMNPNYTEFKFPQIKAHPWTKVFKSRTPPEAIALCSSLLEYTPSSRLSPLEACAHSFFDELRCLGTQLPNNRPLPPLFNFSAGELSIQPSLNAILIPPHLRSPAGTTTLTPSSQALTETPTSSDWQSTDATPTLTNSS
# MDA-MB-468 = assay: Cell proliferation assay (CellTiter-Glo); details: Homo sapiens
# ZR-75-1 = assay: Cell proliferation assay (CellTiter-Glo); details: Homo sapiens, ZR-75-1, 72 h, read-out: 3-day antiproliferative IC50
# Flt3 = system: Flt3; parameters: method as in Johnson et al., 2015; details: ref Johnson et al., 2015; cited from earlier work
# MELK [3] = target: T1, MELK; assay: Inhibitor-induced MELK degradation, immunoblot; details: MDA-MB-468 cells; pretreatment carfilzomib (400 nM) or MLN4924 (1 μM) 4 hours, then MELK inhibitor 4 hours
# [4] = system: MDA-MB-468 (second source); assay: Cell proliferation assay (CellTiter-Glo); details: Homo sapiens, MDA-MB-468, 168 h, read-out: 7-day antiproliferative IC50
# T-47D = assay: Cell proliferation assay (CellTiter-Glo); details: Homo sapiens, T47D
# HCC70 = assay: Cell proliferation assay (CellTiter-Glo); details: Homo sapiens
# BT-549 = assay: Cell proliferation assay (CellTiter-Glo); details: Homo sapiens
# MCF7 = assay: Cell proliferation assay (CellTiter-Glo); details: Homo sapiens
# FKBP12^F36V-MELK(sg3R) = assay: dTAG-induced degradation, immunoblot; type: cell-based; details: MELK−/− MDA-MB-468-FKBP12^F36V-MELK(sg3R) cells; for duration of sustained degradation of FKBP12^F36V-MELK(sg3R): 500 nM
# Method: (§1) Four dTAG molecules (7, 13, 36 and 47) that vary in linker length and chemical structure were tested for their efficiency at depleting FKBP12^F36V-MELK(sg3R) (Figure 4A, Figure 4—figure supplement 3).
# Figure 4. […] (A) Chemical structure of heterobifunctional dTAG molecule dTAG-47. See also Figure 4—figure supplement 3 for the chemical structures of dTAG-7, dTAG-13 and dTAG-36. (B) Immunoblots for MELK and GAPDH after treatment of dTAG-7, 13, 36, and 47 at indicated concentrations in MELK−/− MDA-MB-468-FKBP12^F36V-MELK(sg3R) cells for 4 hours. See Figure 4—figure supplement 1 for details of the generation of MELK−/− MDA-MB-468-FKBP12^F36V-MELK(sg3R) clones. (C) Same as in 4B, but with treatment at 500 nM and extended treatment times for 14, 24, 48, and 72 hours. (D) Changes in abundance of 7270 proteins (peptide count ≥2) comparing MELK−/− MDA-MB-468-FKBP12^F36V-MELK cells treated with dTAG-7 (250 nM) or DMSO for 1 hour, versus p-value (dTAG-7: triplicate, DMSO: duplicate, limma moderated t-test). See also Figure 4—source datas 1 and 2 for the original and the processed data. (E) Crystal violet staining image showing parental MDA-MB-468 cells and MELK−/− MDA-MB-468-FKBP12^F36V-MELK(sg3R) cells after treatment with DMSO or 500 nM of dTAG-47 for 9 days. Immunoblots showing MELK and GAPDH from a duplicate plate on Day 9 confirmed sustained depletion of FKBP12^F36V-MELK(sg3R). These are representative data from one of two independent experiments. Figure 4—source data 1. Raw integrated ion intensities from quantitative multiplexed proteomics. Figure 4—source data 2. Processed Data and Statistical Analysis by limma (topTable). Figure 4—figure supplement 1. Single clones selected from MDA-MB-468-FKBP12^F36V-MELK(sg3R) cells subject to CRISPR/Cas9-mediated knockout of endogenous MELK. Immunoblots for MELK and GAPDH in single cell clones selected from MDA-MB-468-FKBP12^F36V-MELK(sg3R) transfected with Cas9/sgMELK-3 to knockout endogenous MELK. Clone 1D4 is clone 1 and clone 1A3 is clone 2 in Figure 4. Clone 1D4 was confirmed with heterozygous −1 and +1 indels; clone 1A3 was confirmed with homozygous −1 deletions. [drawing 5] Figure 4—figure supplement 2. […] (A) Immunoblots for MELK, cyclin B1 and GAPDH in asynchronous versus M-phase arrested MDA-MB-468 cells and MDA-MB-468-FKBP12^F36V-MELK(sg3R) cells (clone 1). […] Chemical structures of dTAG molecules. FKBP12^F36V-binding ligands conjugated by variable linkers to thalidomide or pomalidomide, including (A) dTAG-7, (B) dTAG-13 and (C) dTAG-36 are capable of inducing degradation of FKBP12^F36V-tagged proteins of interest. [drawing 7]
# [5] = system: MELK−/− MDA-MB-468-FKBP12^F36V-MELK(sg3R) cells; assay: 9-day proliferation assay, crystal violet staining; type: cell-based; details: 500 nM, 9 days, two clones
# Method: as §1
# Figure 4. […] (A) Chemical structure of heterobifunctional dTAG molecule dTAG-47. See also Figure 4—figure supplement 3 for the chemical structures of dTAG-7, dTAG-13 and dTAG-36. (B) Immunoblots for MELK and GAPDH after treatment of dTAG-7, 13, 36, and 47 at indicated concentrations in MELK−/− MDA-MB-468-FKBP12^F36V-MELK(sg3R) cells for 4 hours. See Figure 4—figure supplement 1 for details of the generation of MELK−/− MDA-MB-468-FKBP12^F36V-MELK(sg3R) clones. (C) Same as in 4B, but with treatment at 500 nM and extended treatment times for 14, 24, 48, and 72 hours. (D) Changes in abundance of 7270 proteins (peptide count ≥2) comparing MELK−/− MDA-MB-468-FKBP12^F36V-MELK cells treated with dTAG-7 (250 nM) or DMSO for 1 hour, versus p-value (dTAG-7: triplicate, DMSO: duplicate, limma moderated t-test). See also Figure 4—source datas 1 and 2 for the original and the processed data. (E) Crystal violet staining image showing parental MDA-MB-468 cells and MELK−/− MDA-MB-468-FKBP12^F36V-MELK(sg3R) cells after treatment with DMSO or 500 nM of dTAG-47 for 9 days. […] Raw integrated ion intensities from quantitative multiplexed proteomics. […]
# [6] = MDA-MB-468, 72 h, read-out: 3-day antiproliferative IC50
# [7] = MDA-MB-468, 168 h, read-out: 7-day antiproliferative IC50
# [8] = 72 h, read-out: 3-day antiproliferative IC50
# [9] = 168 h, read-out: 7-day antiproliferative IC50
# [10] = HCC70, 72 h, read-out: 3-day antiproliferative IC50
# [11] = HCC70, 168 h, read-out: 7-day antiproliferative IC50
# [12] = BT-549, 72 h, read-out: 3-day antiproliferative IC50
# [13] = BT-549, 168 h, read-out: 7-day antiproliferative IC50
# [14] = MCF7, 72 h, read-out: 3-day antiproliferative IC50
# Sequence of CDK7 (P50613 whole entry): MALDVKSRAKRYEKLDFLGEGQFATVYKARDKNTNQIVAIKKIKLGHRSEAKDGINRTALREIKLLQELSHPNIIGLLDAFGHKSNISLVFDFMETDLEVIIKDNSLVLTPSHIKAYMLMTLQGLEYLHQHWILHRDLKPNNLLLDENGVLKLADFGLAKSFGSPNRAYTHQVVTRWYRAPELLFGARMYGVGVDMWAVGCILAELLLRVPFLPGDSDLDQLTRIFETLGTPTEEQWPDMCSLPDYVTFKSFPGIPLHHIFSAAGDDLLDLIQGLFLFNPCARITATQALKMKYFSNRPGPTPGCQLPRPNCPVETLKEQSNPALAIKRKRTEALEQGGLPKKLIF
# Sequence of CDK7 (P51946 whole entry partner): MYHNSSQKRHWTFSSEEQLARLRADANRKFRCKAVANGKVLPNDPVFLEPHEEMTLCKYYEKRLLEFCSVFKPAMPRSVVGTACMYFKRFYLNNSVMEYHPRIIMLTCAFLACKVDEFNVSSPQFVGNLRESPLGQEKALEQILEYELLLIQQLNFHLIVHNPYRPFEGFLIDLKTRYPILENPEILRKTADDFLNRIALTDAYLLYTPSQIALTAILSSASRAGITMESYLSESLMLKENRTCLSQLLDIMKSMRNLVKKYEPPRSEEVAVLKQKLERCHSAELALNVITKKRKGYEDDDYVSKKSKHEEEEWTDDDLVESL
# Sequence of CDK7 (P51948 whole entry partner): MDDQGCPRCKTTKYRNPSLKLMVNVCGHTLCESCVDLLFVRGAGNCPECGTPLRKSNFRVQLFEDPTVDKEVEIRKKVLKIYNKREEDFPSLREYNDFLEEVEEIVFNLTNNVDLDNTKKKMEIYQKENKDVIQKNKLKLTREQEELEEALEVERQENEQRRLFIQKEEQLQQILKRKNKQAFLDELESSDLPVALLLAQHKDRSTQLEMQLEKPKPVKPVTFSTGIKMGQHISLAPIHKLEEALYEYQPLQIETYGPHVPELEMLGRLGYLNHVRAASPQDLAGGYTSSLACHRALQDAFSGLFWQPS
structure (smiles),measurement,setting,value
O=c1ccc2cnc3ccc(-c4ccc(O)cc4)cc3c2n1-c1ccc(N2CCNCC2)c(C(F)(F)F)c1 [JW-7-25-1],pIC50,CDK7,7.20
same,pIC50,mTOR,8.26
same,inhibition at 10 µM,MELK [1],100%
same,pIC50,"MELK [2]; Z’-LYTE assay at [ATP]=apparent Km, read-out: Biochemical IC50 MELK",8.30
same,pIC50,GSK3A,7.91
COc1cc(-c2cn[nH]c2)ccc1C(=O)Nc1ccc2c(c1)CCNCC2 [MELK-T1],pIC50,MDA-MB-468; [6],< 5.00
same,pIC50,ZR-75-1,< 5.00
same,pIC50,Flt3,7.74
NS(=O)(=O)OC[C@@H]1C[C@@H](n2ccc3c(N[C@H]4CCc5ccccc54)ncnc32)C[C@@H]1O [MLN4924],rescue of inhibitor-induced MELK degradation by pretreatment,MELK [3],minimal effect
CC1(C)C(=O)N([C@H]2CCc3c(O)cccc32)c2nc(Nc3cccc(CN4CCCC4)c3)ncc21 [MRT199665],pIC50,MDA-MB-468; [6],6.24
same,pIC50,MDA-MB-468; [7],6.80
same,pIC50,ZR-75-1,5.32
same,pIC50,[4],6.04
same,pIC50,T-47D; [8],5.23
same,pIC50,T-47D; [9],6.21
same,pIC50,HCC70; [10],6.41
same,pIC50,HCC70; [11],7.12
same,pIC50,BT-549; [12],6.40
same,pIC50,BT-549; [13],6.51
same,pIC50,MCF7; [14],6.36
CN1CCN(c2ccc(-n3cc(-c4ccncc4OCC4CCNCC4)cn3)cc2)CC1 [NVS-MELK8a],pIC50,MDA-MB-468; [6],5.27
same,pIC50,MDA-MB-468; [7],5.53
same,pIC50,ZR-75-1,< 5.00
same,pIC50,[4],5.08
same,pIC50,T-47D; [8],< 5.00
same,pIC50,T-47D; [9],5.31
same,pIC50,HCC70; [10],5.22
same,pIC50,HCC70; [11],5.38
same,pIC50,"MELK [2]; Biochemical IC50 MELK, Z’-LYTE assay at [ATP]=apparent Km",7.92
same,pIC50,"MELK [2]; Note: MELK IC50, note column of Table 3",7.92
same,pIC50,"MELK [2]; Potency (MELK), measured by Z’LYTE biochemical assay, class symbols in Figure 2C",> 7.70
same,pIC50,BT-549; [12],5.09
same,pIC50,BT-549; [13],5.30
same,pIC50,MCF7; [14],5.22
same,pIC50,"MCF7; MCF7, 168 h, read-out: 7-day antiproliferative IC50",5.55
CC(C)C[C@H](NC(=O)[C@H](CCc1ccccc1)NC(=O)CN1CCOCC1)C(=O)N[C@@H](Cc1ccccc1)C(=O)N[C@@H](CC(C)C)C(=O)[C@@]1(C)CO1 [carfilzomib],rescue of inhibitor-induced MELK degradation by pretreatment,MELK [3],prevented degradation
CCC(C(=O)N1CCCCC1C(=O)OC(CCc1ccc(OC)c(OC)c1)c1ccccc1OCC(=O)NCCCCCCOc1cccc2c1C(=O)N(C1CCC(=O)NC1=O)C2=O)c1cc(OC)c(OC)c(OC)c1 (stereo not shown) [dTAG-13],duration of sustained degradation of FKBP12^F36V-MELK(sg3R),FKBP12^F36V-MELK(sg3R),up to 72 hours
same,time to efficient depletion of FKBP12^F36V-MELK(sg3R),FKBP12^F36V-MELK(sg3R),≤ 4 h
"CC[C@H](C(=O)N1CCCC[C@H]1C(=O)O[C@H](CCc1ccc(OC)c(OC)c1)c1ccccc1OCC(=O)NCCCCCCCCNc1cccc2c1C(=O)N(C1CCC(=O)NC1=O)C2=O)c1cc(OC)c(OC)c(OC)c1 (stereo partly drawn) [dTAG-36, (2S)-(1R)−3-(3,4-dimethoxyphenyl)−1-(2-(2-((8-((2-(2,6-dioxopiperidin-3-yl)−1,3-dioxoisoindolin-4-yl)amino)octyl)amino)−2-oxoethoxy)phenyl)propyl 1-((S)−2-(3,4,5-trimethoxyphenyl)butanoyl)piperidine-2-carboxylate]",duration of sustained degradation of FKBP12^F36V-MELK(sg3R),FKBP12^F36V-MELK(sg3R),up to 72 hours
same,time to efficient depletion of FKBP12^F36V-MELK(sg3R),FKBP12^F36V-MELK(sg3R),≤ 4 h
"CC[C@H](C(=O)N1CCCC[C@H]1C(=O)O[C@H](CCc1ccc(OC)c(OC)c1)c1ccccc1OCC(=O)NCCCCCCCCNc1ccc2c(c1)C(=O)N(C1CCC(=O)NC1=O)C2=O)c1cc(OC)c(OC)c(OC)c1 (stereo partly drawn) [dTAG-47, (2S)-(1R)−3-(3,4-dimethoxyphenyl)−1-(2-(2-((8-((2-(2,6-dioxopiperidin-3-yl)−1,3-dioxoisoindolin-5-yl)amino)octyl)amino)−2-oxoethoxy)phenyl)propyl 1-((S)−2-(3,4,5-trimethoxyphenyl)butanoyl)piperidine-2-carboxylate]",growth in 9-day proliferation assay,[5],neither of the FKBP12^F36V-MELK(sg3R) MELK−/− clones exhibited growth impairment
same,duration of sustained degradation of FKBP12^F36V-MELK(sg3R),FKBP12^F36V-MELK(sg3R),up to 72 hours
same,time to efficient depletion of FKBP12^F36V-MELK(sg3R),FKBP12^F36V-MELK(sg3R),≤ 4 h
